{
  "source": "patent US20110224232A1",
  "about": "(Board of Regents, The University of Texas System, priority 2008, published 2011)",
  "key": {"[1]": {"tested_on": "invasive pulmonary aspergillosis", "details": "high doses, 40 mg/kg per day; cited from earlier work"}, "[2]": {"details": "underivatized; cited from earlier work"}, "[3]": {"tested_on": "Aspergillus fumigatus clinical isolate 293 (AF 293)", "assay": "Survival of A. fumigatus-infected immunosuppressed mice (Kaplan-Meier)", "type": "in vivo", "details": "A. fumigatus-infected female ICR mice, VOR inhalation BID 30-40 mg/kg, AmB intraperitoneal QD 1 mg/kg", "text": "Conidia were harvested from Aspergillus fumigatus clinical isolate 293 (AF 293) cultures grown on potato dextrose agar (Hardy Diagnostics, Santa Maria, Calif.) by washing and scraping agar surfaces with 0.1% Tween 80 in sterile physiological saline and filtering through sterile glass wool. Conidia were re-suspended to achieve a final inoculum of ˜1×10^9 conidia/mL, as confirmed by hemocytometer counts and serial plating.\nMice were rendered immunosuppressed by intraperitoneal cyclophosphamide (250 mg/kg) and subcutaneous cortisone acetate (250 mg/kg) two days prior to inoculation (Day −2). Both cyclophosphamide (200 mg/kg intraperitoneal) and cortisone acetate (250 mg/kg subcutaneously) were re-administered on Day +3 following inoculation. Mice also received prophylactic antibiotic therapy of ceftazidime 50 mg/kg administered sub-cutaneously on Day −2 through Day +7.\nTo simulate pulmonary pathogenesis, mice were placed inside an acrylic chamber, and A. fumigatus conidia were introduced by aerosolizing the conidial suspension with a small particle nebulizer (Hudson Micro Mist, Hudson RCI, Temecula, Calif.) driven by compressed air. A standard exposure time of 1 hour was used to allow for complete aerosolization of the conidial suspension. Starting inocula were assessed by colony forming unit (CFU) enumeration from mice one hour post-inoculation.\nThe inhaled control group received 20 minute nebulizations of 100 mg/mL CAPTISOL® solutions BID beginning on Day −2 and continuing through Day +7. The intraperitoneal AmB group received 1 mg/kg Amphotericin B deoxycholate (Apothecon, Princeton, N.J.) by intraperitoneal injection (IP) once daily (QD) on Day +1 and continuing through Day +7 (FIG. 2).\nStatistical analyses were conducted as follows. Survival was plotted by Kaplan-Meier analysis, and differences in median survival and percent survival between prophylaxis groups were analyzed by the log-rank test and chi-square test, respectively, using Prism version 4 software (GraphPad, San Diego, Calif.). […] A p-value of ≦0.05 was considered statistically significant for all comparisons."}, "Aspergillus fumigatus [4]": {"tested_on": "Aspergillus fumigatus", "assay": "Pulmonary fungal burden by colony forming units in infected mice", "type": "in vivo", "experimental": "(§1) Mice were monitored for an additional 5 days following discontinuation of treatment. Animals that appeared moribund prior to the end of the study were euthanized by halothane and death was recorded as occurring the next day. 12 mice were randomly selected from each group and euthanized on Day +8 for fungal burden analysis while any remaining mice were euthanized on Day +12. 2 additional mice were randomly selected from each group and euthanized on Day +8 and Day +12 for histological analysis\nLungs were homogenized in sterile saline (total volume 2 mL) supplemented with gentamicin and chloramphenicol using a tissue homogenizer (Polytron Dispensing and Mixing Technology PT 2100, Kinematica, Cincinnati, Ohio). Serial dilutions were prepared in sterile saline and plated in duplicate onto potato dextrose agar. Following 24 hours of incubation at 37° C., colonies were enumerated and colony forming units (CFU) per gram of lung tissue for each animal were calculated.\n(§2) Statistical analyses were conducted as follows. Survival was plotted by Kaplan-Meier analysis, and differences in median survival and percent survival between prophylaxis groups were analyzed by the log-rank test and chi-square test, respectively, using Prism version 4 software (GraphPad, San Diego, Calif.). Differences in fungal burden endpoints (CFU/g and CE) were assessed for significance by analysis of variance with Tukey's post-test for multiple comparisons. A p-value of ≦0.05 was considered statistically significant for all comparisons."}, "A. fumigatus": {"tested_on": "A. fumigatus", "assay": "Lung histopathology, pulmonary lesion counts in A. fumigatus-infected mice", "type": "in vivo, Aspergillus fumigatus", "experimental": "Histopathological changes in lung tissue were evaluated and compared for four mice in each of the inhaled voriconazole, inhaled control, and intraperitoneal AmB groups. The inhaled control was aerosolized CAPTISOL® at a concentration of 100 mg/mL over 20 minutes. On day 8 post inoculation, animals were euthanized using halothane and 10% volume/volume formaldehyde was instilled into the lungs via the trachea. Lungs were then harvested and placed into 10% volume/volume formaldehyde. Tissue was fixed in formaldehyde for an adequate period of time followed by processing and embedding into paraffin wax. Coronal sections of the entire lung were obtained at a thickness of 4-6 μm and mounted on slides. Sections were stained with hematoxylin and eosin and viewed by light microscopy with a Zeiss AxioVision Imager at 10× magnification. Two investigators were blinded and independently evaluated each lung section. The extent of lung damage caused by invasive hyphae was recorded and quantified by counting and normalizing the number of gross lesions.\nNormalization of the histopathology results was achieved by using the number of lung pieces (sections) on the slide as a denominator. The total number of lesions on the slide were counted and then divided by the number of pieces of tissue on that slide. This was done because the number of pieces of tissue per slide (again, all from the same cut of lung from the same animal) ranged from 4 to 9. For example, the normalized number of lesions would be 0.4 if 2 lesions were observed on a slide with 5 lung pieces. Similarly, the normalized value would be 0.14 if 1 lesion was observed on a slide with 7 lung pieces."}, "Aspergillus fumigatus [5]": {"tested_on": "Aspergillus fumigatus", "assay": "Pulmonary fungal burden by real-time quantitative PCR (conidial equivalents) in infected mice", "type": "in vivo", "details": "Day + 8 per table footnote", "experimental": "as §1\nPulmonary fungal burden was also quantified by real-time quantitative polymerase chain reaction (qPCR) using previously described methods. Briefly, DNA was extracted from […] of lung homogenate with the use of a commercially available kit (DNeasy Tissue Kit, Qiagen, Valencia, Calif.) according to the manufacturer's instructions. DNA samples were analyzed in duplicate with the use of the ABI PRISM 7300 sequence-detection system (Applied Biosystems, Foster City, Calif.) with primers and dual-labeled fluorescent hybridization probes specific for the A. fumigatus 1,3-β-glucan synthase (FKS) gene (GenBank accession number U79728). The threshold cycle (Ct) of each sample was interpolated from a six-point standard curve generated by spiking naive mouse lungs with known amounts of conidia (102 to 107). An internal standard was amplified in separate reactions to correct for differences in DNA recovery. The resulting data was expressed as conidial equivalents (CE).\nas §2"}, "[6]": {"details": "normalized lesions, listed as AmB"}},
  "note": "“And” between values parts separate entries of the source, which are not always exact repeats. Identical values can stand only once.",
  "data": [
    {"compound": "CC[C@@H]([C@H](C)O)n1ncn(-c2ccc(N3CCN(c4ccc(OC[C@@H]5CO[C@@](Cn6cncn6)(c6ccc(F)cc6F)C5)cc4)CC3)cc2)c1=O", "note": "[posaconazole]", "values": [
      {"measurement": "fungal burden as measured by quantitative real-time PCR", "setting": "[1]", "value": "significant reductions in fungal burden"}
    ]},
    {"compound": "OC[C@H]1O[C@@H]2O[C@H]3[C@H](O)[C@@H](O)[C@@H](O[C@H]4[C@H](O)[C@@H](O)[C@@H](O[C@H]5[C@H](O)[C@@H](O)[C@@H](O[C@H]6[C@H](O)[C@@H](O)[C@@H](O[C@H]7[C@H](O)[C@@H](O)[C@@H](O[C@H]1[C@H](O)[C@H]2O)O[C@@H]7CO)O[C@@H]6CO)O[C@@H]5CO)O[C@@H]4CO)O[C@@H]3CO", "note": "[α-CD]", "values": [
      {"measurement": "water solubility at saturation", "setting": "[2]", "value": "about 14.5 % w/w"}
    ]},
    {"compound": "Amphotericin B deoxycholate", "values": [
      {"measurement": "Percent Survival", "setting": "[3]; to Day +12", "value": 23.1, "unit": "%"},
      {"measurement": "Median Survival", "setting": "[3]", "value": 7, "unit": "days"},
      {"measurement": "A - Day 8 Fungal Burden Determined by CFU, Mean", "setting": "Aspergillus fumigatus [4]; Day +8", "value": 4.37, "unit": "log10 CFU"},
      {"measurement": "A - Day 8 Fungal Burden Determined by CFU, Median", "setting": "Aspergillus fumigatus [4]; Day +8", "value": 4.33, "unit": "log10 CFU"},
      {"measurement": "A - Day 8 Fungal Burden Determined by CFU, Range", "setting": "Aspergillus fumigatus [4]; Day +8", "value": "(3.59-5.07) log10 CFU"},
      {"measurement": "B - Fungal Burden Determined by CFU for All Mice, Mean", "setting": "Aspergillus fumigatus [4]; all samples, day 8 and day 12", "value": 4.22, "unit": "log10 CFU"},
      {"measurement": "B - Fungal Burden Determined by CFU for All Mice, Median", "setting": "Aspergillus fumigatus [4]; all samples, day 8 and day 12", "value": 4.33, "unit": "log10 CFU"},
      {"measurement": "B - Fungal Burden Determined by CFU for All Mice, Range", "setting": "Aspergillus fumigatus [4]; all samples, day 8 and day 12", "value": "(3.24-5.07) log10 CFU"},
      {"measurement": "lung histopathology findings (in words)", "setting": "A. fumigatus; A. fumigatus-infected mice, aerosolized voriconazole, intraperitoneal amphotericin B", "value": "marked pulmonary disease, including necrosis and the presence of invasive hyphae, was observed"},
      {"measurement": "pulmonary lesions normalized for the number of lung tissue pieces per slide, Mean", "setting": "A. fumigatus; normalized lesions", "value": 0.6},
      {"measurement": "pulmonary lesions normalized for the number of lung tissue pieces per slide, 25th Percentile", "setting": "A. fumigatus; [6]", "value": "0.13 and 0.1"},
      {"measurement": "pulmonary lesions normalized for the number of lung tissue pieces per slide, 75th Percentile", "setting": "A. fumigatus; [6]", "value": "1.31 and 1.3"},
      {"measurement": "pulmonary lesions normalized for the number of lung tissue pieces per slide, Maximum", "setting": "A. fumigatus; [6]", "value": 1.6},
      {"measurement": "pulmonary lesions normalized for the number of lung tissue pieces per slide, Median", "setting": "A. fumigatus; [6]", "value": "0.28 and 0.3"},
      {"measurement": "pulmonary lesions normalized for the number of lung tissue pieces per slide, Minimum", "setting": "A. fumigatus; [6]", "value": "0.13 and 0.1"},
      {"measurement": "pulmonary lesions in all available histological samples, 25th Percentile", "setting": "A. fumigatus; number of lesions", "value": 1.0},
      {"measurement": "pulmonary lesions in all available histological samples, 75th Percentile", "setting": "A. fumigatus; number of lesions", "value": 6.8},
      {"measurement": "pulmonary lesions in all available histological samples, Maximum", "setting": "A. fumigatus; number of lesions", "value": 8.0},
      {"measurement": "pulmonary lesions in all available histological samples, Mean", "setting": "A. fumigatus; number of lesions", "value": 3.3},
      {"measurement": "pulmonary lesions in all available histological samples, Median", "setting": "A. fumigatus; number of lesions", "value": 2.0},
      {"measurement": "pulmonary lesions in all available histological samples, Minimum", "setting": "A. fumigatus; number of lesions", "value": 1.0},
      {"measurement": "C - Conidial Equivalents Determined by qPCR, Mean", "setting": "Aspergillus fumigatus [5]", "value": "4.89 log10 conidial equivalents"},
      {"measurement": "C - Conidial Equivalents Determined by qPCR, Median", "setting": "Aspergillus fumigatus [5]", "value": "4.95 log10 conidial equivalents"},
      {"measurement": "C - Conidial Equivalents Determined by qPCR, Range", "setting": "Aspergillus fumigatus [5]", "value": "(4.49-5.38) log10 conidial equivalents"},
      {"measurement": "D - Conidial Equivalents per Gram of Lung Tissue Determined by Qpcr, Mean", "setting": "Aspergillus fumigatus [5]; normalized for wet lung weight", "value": "5.50 log10 conidial equivalents per"},
      {"measurement": "D - Conidial Equivalents per Gram of Lung Tissue Determined by Qpcr, Median", "setting": "Aspergillus fumigatus [5]; normalized for wet lung weight", "value": "5.57 log10 conidial equivalents per"},
      {"measurement": "D - Conidial Equivalents per Gram of Lung Tissue Determined by Qpcr, Range", "setting": "Aspergillus fumigatus [5]; normalized for wet lung weight", "value": "(5.09-5.88) log10 conidial equivalents per"}
    ]}
  ]
}
